We go through 20 compounds from ChEMBL document CHEMBL5291721, “A preclinical secondary pharmacology resource illuminates target-adverse drug reaction associations of marketed drugs” (Nat Commun, 2023).

The target in experiment [1] is Histamine H1 receptor (Homo sapiens, UniProt P35367).
The target in experiment [2] is Melanocortin receptor 3 (Homo sapiens, UniProt P41968).
Experiment [3] concerns the target Mu-type opioid receptor (Homo sapiens, UniProt P35372). Description: biochemical. Format: functional.
For experiment [4], the target named is T1, Cholecystokinin receptor type A (Homo sapiens, UniProt P32238).
T1 sequence (P32238 whole entry): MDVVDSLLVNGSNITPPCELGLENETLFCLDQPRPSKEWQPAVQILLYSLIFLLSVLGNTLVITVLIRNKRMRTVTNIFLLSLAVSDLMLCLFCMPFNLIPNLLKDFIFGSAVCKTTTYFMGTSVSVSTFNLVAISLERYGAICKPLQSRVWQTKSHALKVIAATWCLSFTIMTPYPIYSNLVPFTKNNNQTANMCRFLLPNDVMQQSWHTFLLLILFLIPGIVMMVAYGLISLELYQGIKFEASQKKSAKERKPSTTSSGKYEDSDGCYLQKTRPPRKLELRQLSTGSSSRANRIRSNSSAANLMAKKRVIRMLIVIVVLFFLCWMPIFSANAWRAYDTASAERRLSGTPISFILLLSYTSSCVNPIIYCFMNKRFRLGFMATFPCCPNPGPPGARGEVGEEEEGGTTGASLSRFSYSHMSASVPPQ

Experiment [5] deals with T2, Prostaglandin G/H synthase 1 (Rattus norvegicus, UniProt Q63921).
T2 sequence (Q63921 whole entry): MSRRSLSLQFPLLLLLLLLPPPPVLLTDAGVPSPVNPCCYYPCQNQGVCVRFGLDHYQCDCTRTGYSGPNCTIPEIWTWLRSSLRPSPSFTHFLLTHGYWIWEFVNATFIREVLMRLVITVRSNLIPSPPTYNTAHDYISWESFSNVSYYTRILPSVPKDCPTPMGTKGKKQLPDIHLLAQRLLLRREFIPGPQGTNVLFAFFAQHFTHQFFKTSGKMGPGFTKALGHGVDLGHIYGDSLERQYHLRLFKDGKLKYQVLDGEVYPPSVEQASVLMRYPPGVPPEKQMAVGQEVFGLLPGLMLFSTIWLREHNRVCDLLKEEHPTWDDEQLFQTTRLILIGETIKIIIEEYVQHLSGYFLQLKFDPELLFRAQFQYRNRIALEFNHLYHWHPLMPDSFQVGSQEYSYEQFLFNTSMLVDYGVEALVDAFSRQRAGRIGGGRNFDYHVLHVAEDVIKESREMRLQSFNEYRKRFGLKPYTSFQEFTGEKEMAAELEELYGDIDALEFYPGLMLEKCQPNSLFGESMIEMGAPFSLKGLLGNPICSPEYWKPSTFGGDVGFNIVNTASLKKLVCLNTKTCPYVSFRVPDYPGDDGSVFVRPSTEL
Type of experiment: functional.

In experiment [6] the target is Gamma-aminobutyric acid receptor subunit alpha-1 (Rattus norvegicus, UniProt P62813).
Chain of Gamma-aminobutyric acid receptor subunit alpha-1 (P62813 whole entry): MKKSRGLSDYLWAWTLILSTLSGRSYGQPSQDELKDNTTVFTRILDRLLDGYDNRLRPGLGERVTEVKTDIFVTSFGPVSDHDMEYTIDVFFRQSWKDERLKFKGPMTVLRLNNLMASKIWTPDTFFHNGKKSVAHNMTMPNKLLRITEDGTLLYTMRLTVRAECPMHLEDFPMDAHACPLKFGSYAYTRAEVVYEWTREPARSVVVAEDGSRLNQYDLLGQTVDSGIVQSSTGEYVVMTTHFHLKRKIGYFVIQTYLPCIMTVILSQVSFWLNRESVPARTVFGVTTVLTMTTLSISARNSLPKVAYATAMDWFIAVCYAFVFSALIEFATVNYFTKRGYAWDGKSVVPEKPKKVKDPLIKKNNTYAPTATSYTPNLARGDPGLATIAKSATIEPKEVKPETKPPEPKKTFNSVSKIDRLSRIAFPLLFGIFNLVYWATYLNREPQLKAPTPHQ
Experiment [7] addresses T3, Endothelin-1 receptor (Homo sapiens, UniProt P25101).
T3 sequence (P25101 whole entry): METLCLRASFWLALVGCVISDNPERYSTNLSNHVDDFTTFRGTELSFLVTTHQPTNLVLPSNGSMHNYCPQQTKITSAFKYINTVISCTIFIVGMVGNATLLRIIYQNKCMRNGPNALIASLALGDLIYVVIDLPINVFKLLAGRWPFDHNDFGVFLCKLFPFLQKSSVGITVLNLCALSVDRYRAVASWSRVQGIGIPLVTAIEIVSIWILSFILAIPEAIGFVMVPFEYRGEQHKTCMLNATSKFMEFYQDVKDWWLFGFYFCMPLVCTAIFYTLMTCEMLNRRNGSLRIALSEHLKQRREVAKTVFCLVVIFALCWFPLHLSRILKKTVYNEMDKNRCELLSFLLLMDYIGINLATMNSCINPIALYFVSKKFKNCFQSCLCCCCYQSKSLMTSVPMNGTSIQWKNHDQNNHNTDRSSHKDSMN

The target in experiment [8] is T4, Alpha-1A adrenergic receptor (Homo sapiens, UniProt P35348).
T4 sequence (P35348 whole entry): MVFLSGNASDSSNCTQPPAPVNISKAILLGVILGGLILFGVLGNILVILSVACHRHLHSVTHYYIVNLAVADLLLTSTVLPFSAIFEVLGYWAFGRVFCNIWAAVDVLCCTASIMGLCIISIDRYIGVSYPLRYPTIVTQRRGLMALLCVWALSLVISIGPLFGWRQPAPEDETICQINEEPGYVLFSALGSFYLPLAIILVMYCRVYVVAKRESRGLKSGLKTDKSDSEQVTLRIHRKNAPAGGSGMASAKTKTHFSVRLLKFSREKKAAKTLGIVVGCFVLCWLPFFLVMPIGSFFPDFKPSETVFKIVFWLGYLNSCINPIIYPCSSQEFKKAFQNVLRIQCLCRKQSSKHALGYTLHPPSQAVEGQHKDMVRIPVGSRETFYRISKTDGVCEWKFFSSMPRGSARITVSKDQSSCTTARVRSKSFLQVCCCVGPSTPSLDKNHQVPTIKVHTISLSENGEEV
Type of experiment: functional, cell-based.

Chain of Histamine H1 receptor (P35367 whole entry): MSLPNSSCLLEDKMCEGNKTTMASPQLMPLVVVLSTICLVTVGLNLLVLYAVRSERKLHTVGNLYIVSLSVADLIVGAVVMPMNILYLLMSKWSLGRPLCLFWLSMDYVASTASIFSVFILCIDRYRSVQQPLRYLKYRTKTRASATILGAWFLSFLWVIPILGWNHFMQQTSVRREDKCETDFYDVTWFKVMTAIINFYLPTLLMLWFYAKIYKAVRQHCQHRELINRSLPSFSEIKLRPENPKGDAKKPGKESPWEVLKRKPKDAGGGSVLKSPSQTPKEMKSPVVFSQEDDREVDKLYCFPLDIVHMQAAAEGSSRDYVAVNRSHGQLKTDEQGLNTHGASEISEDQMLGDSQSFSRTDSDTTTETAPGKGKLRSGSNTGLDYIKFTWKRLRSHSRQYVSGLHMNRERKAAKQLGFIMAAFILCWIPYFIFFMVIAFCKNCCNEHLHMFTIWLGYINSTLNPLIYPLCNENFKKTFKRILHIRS
Chain of Mu-type opioid receptor (P35372 whole entry): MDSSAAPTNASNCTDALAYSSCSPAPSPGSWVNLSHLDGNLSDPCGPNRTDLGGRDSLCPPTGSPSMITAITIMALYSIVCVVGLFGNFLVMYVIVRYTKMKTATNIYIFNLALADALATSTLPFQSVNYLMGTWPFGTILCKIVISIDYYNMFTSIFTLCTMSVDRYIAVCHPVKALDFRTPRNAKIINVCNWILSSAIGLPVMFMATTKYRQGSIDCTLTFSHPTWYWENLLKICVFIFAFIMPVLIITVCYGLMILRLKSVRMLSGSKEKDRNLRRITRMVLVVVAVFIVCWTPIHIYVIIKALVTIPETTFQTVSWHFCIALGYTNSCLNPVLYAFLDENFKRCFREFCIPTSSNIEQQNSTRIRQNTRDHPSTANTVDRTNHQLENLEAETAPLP
Chain of Melanocortin receptor 3 (P41968 whole entry): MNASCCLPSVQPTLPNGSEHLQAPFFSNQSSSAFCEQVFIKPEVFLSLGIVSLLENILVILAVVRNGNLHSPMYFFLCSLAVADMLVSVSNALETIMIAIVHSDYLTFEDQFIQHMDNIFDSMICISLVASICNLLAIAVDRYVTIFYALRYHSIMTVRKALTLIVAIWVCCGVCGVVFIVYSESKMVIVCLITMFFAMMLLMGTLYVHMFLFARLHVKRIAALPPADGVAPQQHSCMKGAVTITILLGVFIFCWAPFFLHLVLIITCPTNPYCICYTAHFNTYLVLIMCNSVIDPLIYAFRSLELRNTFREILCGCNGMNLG

As a reminder, the AC50 is the midpoint of the concentration-response curve, whichever way the signal moves. Read a low AC50 as activity at low concentration. With `O=C1C(O)=C([C@H]2CC[C@H](c3ccc(Cl)cc3)CC2)C(=O)c2ccccc21` [ATOVAQUONE], the AC50 in experiment [1], in experiment [2], in experiment [3], in experiment [4], in experiment [5] and in experiment [6] was greater than 30 µM in each case. In addition, the AC50 in experiment [7] and in experiment [8] was greater than 30 µM in each case.

`COc1ccc(CCNCC(O)COc2cccc(C)c2)cc1OC` (stereo not drawn) [BEVANTOLOL]: the AC50 in experiment [1] is greater than 10 µM; in experiment [2], greater than 10 µM; in experiment [3], greater than 30 µM; in experiment [4], greater than 10 µM; in experiment [5] it was greater than 10 µM; in experiment [6] it was greater than 10 µM. The same compound registered an AC50 in experiment [8] of 12 µM.

`Brc1c(NC2=NCCN2)ccc2nccnc12` [BRIMONIDINE]: the AC50 in experiment [2], in experiment [3], in experiment [4], in experiment [5], in experiment [6] and in experiment [7] was greater than 30 µM throughout.

Take `CC(CC1c2ccccc2CCc2ccccc21)CN(C)C` (stereo not drawn) [BUTRIPTYLINE]: the AC50 was 0.015 µM in experiment [1], greater than 30 µM in experiment [6] and 15 µM in experiment [8].

In the case of `CC(C)(C)NCC(O)COc1cccc2c1CCC(=O)N2` (stereo not drawn) [CARTEOLOL], the AC50 was greater than 10 µM in experiment [1]; greater than 10 µM in experiment [2]; greater than 10 µM in experiment [4]; greater than 10 µM in experiment [5]; greater than 10 µM in experiment [6]; greater than 30 µM in experiment [8].

As to `Nc1nc(Cl)nc2c1ncn2[C@H]1C[C@H](O)[C@@H](CO)O1` [CLADRIBINE], the AC50 in experiment [2], in experiment [3], in experiment [4], in experiment [5], in experiment [6] and in experiment [7] was greater than 30 µM each time. Also, in experiment [8], the AC50 is greater than 30 µM.

For `Clc1ccccc1C(c1ccccc1)(c1ccccc1)n1ccnc1` [CLOTRIMAZOLE], the AC50 in experiment [6] was greater than 10 µM; in experiment [8], greater than 30 µM.

With `COc1ccc2c3c1O[C@H]1[C@@H](O)CC[C@H]4[C@@H](C2)N(C)CC[C@@]341` [DIHYDROCODEINE], the AC50 in experiment [1], in experiment [6] and in experiment [8] was greater than 30 µM each time.

In the case of `NC(=O)OCC(COC(N)=O)c1ccccc1` [FELBAMATE], the AC50 in experiment [1], in experiment [2], in experiment [4], in experiment [5] and in experiment [6] was greater than 10 µM each time.

Take `Fc1ccc(C(c2ccccc2)(c2ccccc2F)n2ccnc2)cc1` (stereo not drawn) [FLUTRIMAZOLE]: the AC50 in experiment [1], in experiment [2], in experiment [3], in experiment [4], in experiment [5] and in experiment [6] was greater than 30 µM each time. In addition, the AC50 in experiment [7] and in experiment [8] was greater than 30 µM in each case.

Turning to `Cc1c(OCC(F)(F)F)ccnc1C[S+]([O-])c1nc2ccccc2[nH]1` (stereo not drawn) [LANSOPRAZOLE], the AC50 was greater than 30 µM in experiment [2]; 4.2 µM in experiment [3]; greater than 30 µM in experiment [4]; greater than 30 µM in experiment [5]; greater than 10 µM in experiment [6]; greater than 30 µM in experiment [7]. The compound further yielded an AC50 in experiment [8] greater than 30 µM.

As to `NC(=O)CN1CC(O)CC1=O` (stereo not drawn) [OXIRACETAM], the AC50 in experiment [1], in experiment [2], in experiment [3], in experiment [4], in experiment [5] and in experiment [6] was greater than 30 µM in each case. Besides, the AC50 in experiment [7] and in experiment [8] was greater than 30 µM in each case.

Regarding `Cc1cc(C(C)(C)C)c(O)c(C)c1CC1=NCCN1` [OXYMETAZOLINE], the concentration at half-maximal activity (AC50) in experiment [2] and in experiment [5] was greater than 30 µM in each case.

As to `C[C@H]1COc2c(C3(N)CC3)c(F)cc3c(=O)c(C(=O)O)cn1c23` [PAZUFLOXACIN], the AC50 was greater than 10 µM in experiment [1]; greater than 10 µM in experiment [2]; greater than 10 µM in experiment [4]; greater than 30 µM in experiment [5]; greater than 10 µM in experiment [6].

For `C[C@@H]1O[C@@H](O[C@@H]2C=C3CC[C@@H]4[C@H](CC[C@]5(C)[C@@H](c6ccc(=O)oc6)CC[C@]45O)[C@@]3(C)CC2)[C@H](O)[C@H](O)[C@H]1O` [PROSCILLARIDIN], the AC50 in experiment [2] was greater than 30 µM; in experiment [3], greater than 30 µM; in experiment [4] it was greater than 30 µM; in experiment [5], 13 µM; in experiment [6], greater than 30 µM; in experiment [7], greater than 30 µM. This compound also had an AC50 in experiment [8] greater than 30 µM.

Regarding `CC/C(=C(\c1ccccc1)c1ccc(OCCN(C)C)cc1)c1ccccc1` [TAMOXIFEN], the AC50 is greater than 10 µM in experiment [6] and greater than 30 µM in experiment [8].

Take `C#C[C@]1(O)CC[C@H]2[C@@H]3[C@H](C)CC4=C(CCC(=O)C4)[C@H]3CC[C@@]21C` [TIBOLONE]: the AC50 in experiment [2] is greater than 30 µM; in experiment [3], greater than 30 µM; in experiment [4], greater than 30 µM; in experiment [5], 4.5 µM; in experiment [6], greater than 30 µM; in experiment [7], greater than 30 µM. In experiment [8], this compound yielded an AC50 greater than 30 µM.

On to `COc1cccc(C2(O)CCCCC2CN(C)C)c1` (stereo not drawn) [TRAMADOL], for which the AC50 in experiment [2] was greater than 30 µM; in experiment [4], greater than 30 µM; in experiment [5], greater than 30 µM; in experiment [6] it was greater than 10 µM; in experiment [7] it was greater than 30 µM; in experiment [8], greater than 30 µM.

On to `Cc1nnc2n1-c1ccc(Cl)cc1C(c1ccccc1Cl)=NC2` [TRIAZOLAM], for which the AC50 was greater than 10 µM in experiment [1]; greater than 30 µM in experiment [2]; greater than 30 µM in experiment [4]; greater than 30 µM in experiment [5]; greater than 10 µM in experiment [6]; greater than 30 µM in experiment [8].

On to `CC1(C)CCC(CN2CCN(c3ccc(C(=O)NS(=O)(=O)c4ccc(NCC5CCOCC5)c([N+](=O)[O-])c4)c(Oc4cnc5[nH]ccc5c4)c3)CC2)=C(c2ccc(Cl)cc2)C1` [VENETOCLAX], for which the AC50 in experiment [1], in experiment [2] and in experiment [5] was greater than 30 µM each time.
